We go through 2 compounds from BindingDB's records for doi:10.1021/cb400407c (Duke University Medical Center, 2013).

Several values for one entry are separate records, joined by “and”; a condition that tells them apart may be missing. Equal values may be shown once.

Common to all, as to assay: Kinome Profiling
Experiment [1] deals with Rho-associated protein kinase 2 (Homo sapiens, UniProt O75116). As to the method: (§1) HS38 was evaluated using a P-33 ATP filter-binding assay by the International Centre for Kinase Profiling (University of Dundee) against 124 purified protein kinases using previously described methods.
Chain of Rho-associated protein kinase 2 (O75116 whole entry): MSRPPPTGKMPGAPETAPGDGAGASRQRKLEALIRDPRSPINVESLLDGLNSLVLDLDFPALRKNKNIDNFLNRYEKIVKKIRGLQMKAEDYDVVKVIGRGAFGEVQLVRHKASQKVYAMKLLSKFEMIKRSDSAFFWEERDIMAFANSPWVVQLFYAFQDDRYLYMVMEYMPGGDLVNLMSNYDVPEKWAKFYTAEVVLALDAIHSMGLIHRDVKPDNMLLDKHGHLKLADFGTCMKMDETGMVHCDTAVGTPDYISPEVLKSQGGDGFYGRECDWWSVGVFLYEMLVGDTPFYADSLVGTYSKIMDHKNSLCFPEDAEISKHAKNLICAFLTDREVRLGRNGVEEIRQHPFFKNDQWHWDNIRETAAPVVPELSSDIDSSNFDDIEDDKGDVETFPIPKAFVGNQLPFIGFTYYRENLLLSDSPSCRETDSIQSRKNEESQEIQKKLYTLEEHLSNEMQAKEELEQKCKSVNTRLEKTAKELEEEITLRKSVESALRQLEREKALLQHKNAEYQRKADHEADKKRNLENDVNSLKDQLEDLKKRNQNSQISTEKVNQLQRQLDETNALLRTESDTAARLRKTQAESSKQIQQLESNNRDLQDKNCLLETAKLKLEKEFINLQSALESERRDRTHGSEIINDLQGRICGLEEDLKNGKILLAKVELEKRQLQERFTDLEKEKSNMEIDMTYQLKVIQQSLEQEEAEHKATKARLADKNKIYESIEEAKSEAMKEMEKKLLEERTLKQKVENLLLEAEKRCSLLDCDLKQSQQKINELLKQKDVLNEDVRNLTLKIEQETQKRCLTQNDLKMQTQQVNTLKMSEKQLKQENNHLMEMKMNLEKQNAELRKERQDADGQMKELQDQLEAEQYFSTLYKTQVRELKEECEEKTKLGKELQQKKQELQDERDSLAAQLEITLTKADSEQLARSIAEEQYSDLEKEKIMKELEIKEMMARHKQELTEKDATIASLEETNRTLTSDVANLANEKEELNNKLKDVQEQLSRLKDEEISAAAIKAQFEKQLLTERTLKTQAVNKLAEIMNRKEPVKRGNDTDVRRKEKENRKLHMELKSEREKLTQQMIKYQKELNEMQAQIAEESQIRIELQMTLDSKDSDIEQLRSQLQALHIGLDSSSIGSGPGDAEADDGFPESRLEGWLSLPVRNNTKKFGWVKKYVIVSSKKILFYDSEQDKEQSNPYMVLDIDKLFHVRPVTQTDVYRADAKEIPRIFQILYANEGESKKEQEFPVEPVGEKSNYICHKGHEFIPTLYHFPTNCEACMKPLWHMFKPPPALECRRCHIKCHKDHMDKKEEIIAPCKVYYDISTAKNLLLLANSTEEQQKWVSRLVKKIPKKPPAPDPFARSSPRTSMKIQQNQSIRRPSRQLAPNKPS
Experiment [2] concerns the target Serine/threonine-protein kinase pim-1 (Homo sapiens, UniProt P11309). The method, then:
as §1

In experiment [3] the target is Death-associated protein kinase 1 (Homo sapiens, UniProt P53355). The method, then:
as §1

Experiment [4] deals with Serine/threonine-protein kinase pim-3 (Homo sapiens, UniProt Q86V86). The method, then: as §1
Experiment [5] addresses Serine/threonine-protein kinase pim-2 (Homo sapiens, UniProt Q9P1W9). As to the method:
as §1

Chain of Death-associated protein kinase 1 (P53355 whole entry): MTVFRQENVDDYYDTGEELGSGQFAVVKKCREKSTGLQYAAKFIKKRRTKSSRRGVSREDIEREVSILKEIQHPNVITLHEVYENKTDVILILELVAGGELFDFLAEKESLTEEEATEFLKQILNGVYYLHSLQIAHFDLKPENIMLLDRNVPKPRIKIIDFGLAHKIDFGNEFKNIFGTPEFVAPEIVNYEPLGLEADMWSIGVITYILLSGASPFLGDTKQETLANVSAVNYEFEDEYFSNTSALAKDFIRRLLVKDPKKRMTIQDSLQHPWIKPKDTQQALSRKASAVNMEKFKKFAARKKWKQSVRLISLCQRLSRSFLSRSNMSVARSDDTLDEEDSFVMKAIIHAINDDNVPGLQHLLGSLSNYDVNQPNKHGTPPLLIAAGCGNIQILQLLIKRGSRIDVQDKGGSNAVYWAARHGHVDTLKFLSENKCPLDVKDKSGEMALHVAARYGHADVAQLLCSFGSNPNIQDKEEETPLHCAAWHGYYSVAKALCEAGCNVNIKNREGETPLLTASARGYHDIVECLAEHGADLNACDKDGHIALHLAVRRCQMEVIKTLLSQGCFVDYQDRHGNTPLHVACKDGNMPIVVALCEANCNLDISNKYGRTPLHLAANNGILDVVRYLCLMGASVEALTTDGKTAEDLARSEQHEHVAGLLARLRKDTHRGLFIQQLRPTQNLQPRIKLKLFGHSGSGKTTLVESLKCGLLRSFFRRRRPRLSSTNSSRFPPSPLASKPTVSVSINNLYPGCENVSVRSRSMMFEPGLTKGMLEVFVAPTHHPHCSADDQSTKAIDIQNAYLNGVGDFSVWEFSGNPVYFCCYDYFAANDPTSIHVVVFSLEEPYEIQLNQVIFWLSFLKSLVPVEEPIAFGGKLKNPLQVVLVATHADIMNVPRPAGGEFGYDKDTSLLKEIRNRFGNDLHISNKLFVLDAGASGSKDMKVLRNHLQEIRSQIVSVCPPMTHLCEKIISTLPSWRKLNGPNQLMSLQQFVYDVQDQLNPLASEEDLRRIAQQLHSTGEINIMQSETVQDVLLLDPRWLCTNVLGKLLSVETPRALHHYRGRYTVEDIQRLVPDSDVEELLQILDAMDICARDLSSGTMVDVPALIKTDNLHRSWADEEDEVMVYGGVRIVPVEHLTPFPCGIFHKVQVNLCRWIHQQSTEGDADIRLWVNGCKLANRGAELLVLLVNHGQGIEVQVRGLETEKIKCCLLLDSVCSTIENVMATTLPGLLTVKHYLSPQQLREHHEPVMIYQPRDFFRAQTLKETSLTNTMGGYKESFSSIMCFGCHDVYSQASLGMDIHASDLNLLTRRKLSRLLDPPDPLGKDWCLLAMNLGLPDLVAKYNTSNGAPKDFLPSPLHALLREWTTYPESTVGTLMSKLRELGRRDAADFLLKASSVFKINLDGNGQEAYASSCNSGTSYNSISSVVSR
Chain of Serine/threonine-protein kinase pim-1 (P11309 whole entry): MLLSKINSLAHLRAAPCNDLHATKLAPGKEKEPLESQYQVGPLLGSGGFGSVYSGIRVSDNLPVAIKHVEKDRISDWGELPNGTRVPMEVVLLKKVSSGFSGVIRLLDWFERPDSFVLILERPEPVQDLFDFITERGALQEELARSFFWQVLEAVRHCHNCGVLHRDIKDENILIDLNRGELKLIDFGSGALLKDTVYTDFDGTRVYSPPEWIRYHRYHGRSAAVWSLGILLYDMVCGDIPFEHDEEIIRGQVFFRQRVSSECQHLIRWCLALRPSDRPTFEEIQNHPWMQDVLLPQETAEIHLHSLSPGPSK
Chain of Serine/threonine-protein kinase pim-2 (Q9P1W9 whole entry): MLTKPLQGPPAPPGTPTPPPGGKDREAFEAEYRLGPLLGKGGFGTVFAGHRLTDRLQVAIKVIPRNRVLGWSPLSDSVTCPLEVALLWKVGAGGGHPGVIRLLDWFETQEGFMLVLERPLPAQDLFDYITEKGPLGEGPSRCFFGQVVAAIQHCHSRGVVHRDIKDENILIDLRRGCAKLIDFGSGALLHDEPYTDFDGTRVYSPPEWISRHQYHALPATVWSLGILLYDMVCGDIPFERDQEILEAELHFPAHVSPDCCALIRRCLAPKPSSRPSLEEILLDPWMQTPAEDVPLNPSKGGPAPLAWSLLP

Take `CC(Sc1nc2c(cnn2-c2cccc(Cl)c2)c(=O)[nH]1)C(N)=O` (centres undefined) [HS38]: in experiment [1], the IC50 was more than 200 µM. Also, the Kd in experiment [2] was 1800 nM; in experiment [3], 300 nM and 79 nM and 280 nM; in experiment [4], 810 nM; in experiment [5], 6.5 µM.
As for `O=c1[nH]c(SCCO)nc2c1cnn2-c1cccc(Cl)c1` [HS43], the Kd was 1800 nM in experiment [2]; 1500 nM and 320 nM in experiment [3]; 1600 nM in experiment [4]; 3.2 µM in experiment [5].
